The subject of one data set is mice fed HFD. The data set can be described thus: novel object recognition test (ORT) in mice fed a high-fat diet. It counts as in vivo. The settings on record: MLA 0.3 mg/kg i.p. with rice-memolin 1 mg/kg p.o. once a day for 3 days, n = 3–5 (Fig. 4). The procedure:
Male ddY mice (11 weeks old) were obtained from SLC (Shizuoka, Japan). They were kept in a temperature-controlled room (23 °C) on a daily 12-h light: 12-h dark cycle. After one week-acclimatization, these mice were fed MF pellets (Oriental Yeast, Tokyo, Japan) as control diet, HFD60 pellets (Oriental Yeast Co., Ltd, Japan) as high-fat diet, or HFD 60 pellets containing 0.04% rice bran protein digest (specially ordered from Oriental Yeast Co., Ltd, Japan) with free access to water for 7 days. The component of HFD60 was previously reported. Animal experiments were conducted in accordance with the Fundamental Guidelines for Proper Conduct of Animal Experiment and Related Activities in Academic Research Institutions under the jurisdiction of the Ministry of Education, Culture, Sports, Science and Technology of Japan, and were approved by the Committee on Animal Experimentation at Kyoto University, Japan. All experiments were approved by the Kyoto University Ethics Committee for Animal Research Use, permission code was R3-13. […]
Cognitive function was evaluated on Day 6 and 7 using two behavioral pharmacological tests: novel object recognition test (ORT) and object location test (OLT). […] Using the ORT, effect of donepezil, a drug currently used for the relief of cognitive deficits associated with mild to moderate Alzheimer’s diseases, was evaluated. […]

The next data set concerns pepsin and pancreatin. The data set can be described thus: pepsin and pancreatin digestion of VYTPG with LCMS analysis. The class given is in vitro ADME. The settings on record: simulated gastrointestinal digestion; each enzyme treatment time 1 h; LCMS analysis (Supplemental Fig. S1). As for the experimental part:
Pepsin and pancreatin digests of VYTPG and LCMS analysis were performed in a similar manner to previous studies (Shobako et al.) with slight modifications to simulate peptide bioavailability. Each enzyme treatment time was 1 h.

Where no end group is shown, it is not given here.

For `CCN1C[C@]2(COC(=O)c3ccccc3N3C(=O)C[C@H](C)C3=O)CC[C@H](OC)[C@@]34[C@@H]5C[C@H]6[C@H](OC)[C@@H]5[C@](O)(C[C@@H]6OC)[C@@](O)([C@@H](OC)[C@H]23)[C@@H]14` [MLA, methyllycaconitine], in the data set on mice fed HFD, the “effect on the rice-memolin-induced improvement in the novel ORT” value is “inhibited the effects of rice-memolin”. On to VYTPG [VYTPG, Val-Tyr-Thr-Pro-Gly], for which, in the data set on pepsin and pancreatin, the “stability to digestion by pepsin and pancreatin” value is “existed even after digestion by pepsin and pancreatin”.

These data come from PMC9938899, “Rice-memolin, a novel peptide derived from rice bran, improves cognitive function after oral administration in mice” (Scientific Reports, 2023).
